Test results: patent publication US20070238700A1, “N-PHENYL-1,1,1-TRIFLUOROMETHANESULFONAMIDE HYDRAZONE DERIVATIVE COMPOUNDS AND THEIR USAGE IN CONTROLLING PARASITES” (priority 2006, published 2007)
Where two headings read alike, the source gives them in different places.

Test system: Ctenocephalides felis
Procedure: b) Ctenocephalides felis Adulticide Assay: C. felis Single Dose Screen
Mortality of fleas was the primary endpoint in the assay. Fleas were considered dead if they didn't move or were on their sides and unable to walk or right themselves. […] The concentration chosen (1.26 μg/cm^2) was higher than that known to kill 90% of cat fleas (LC90) using the reference compound, permethrin.
The test species was the cat flea (Ctenocephalides felis). The strain used was obtained from external suppliers as pupae and held in the laboratory under testing conditions until the adults had emerged. Fifteen (15) fleas were used in a minimum of four replicates against a single concentration level (approximately 60 fleas). The insects were selected to be in the adult life stage, aged between 3 and 7 days post emergence.
The compounds to be tested were supplied as solids and were prepared in acetone as described below prior to testing. Samples were stored in a refrigerator (5±1° C.) unless otherwise specified.
During the mortality testing, the temperature was maintained at 25±1° C. Humidity was maintained at 75±5%. The base (area=159 mm^2) of a 100 mL glass Erlenmeyer (conical) flask provided the treatment surface. Flasks were pretreated with Coatasil™ glass treatment to maximise bio-availability of test compounds by preventing them from binding to glass the surface. The base of the 100 mL Erlenmeyer flask was treated with 0.5 mL of test sample in acetone and gently swirled. This volume was sufficient to cover the base of the flask. Flasks were left to dry for 24 hours before flea exposure.
Adult cat fleas were placed into a sorting chamber, which allowed fleas to jump into the Erlenmeyer flasks. Fifteen (15) adult cat fleas were collected in each flask. The top of the flasks were then covered in Parafilm™ and small holes were made to allow gas exchange. A 0.5 mL volume of acetone as a solvent control was applied to the base of an Erlenmeyer flask and the testing proceeded in the same manner described above. Cat fleas in the treatment containers were held under testing conditions for 8, 24 and/or 48 hours. Mortality was recorded at 8, 24, 8 and 24, or 24 and 48 hours Pooled 8, 24, 8 and 24, and 24 and 48 hour mortality data were converted to percentages and are summarized by Table 21, below.

Structure (SMILES) | C. felis Mortality (%) 8 h | C. felis Mortality (%) 24 h | C. felis Mortality (%) 8 h (8 h, data from laboratory 1) | C. felis Mortality (%) 24 h (24 h, data from laboratory 1)
CC(=Nn1cnc2ccccc2c1=O)c1cc(Cl)ccc1NS(=O)(=O)C(F)(F)F [Compound 186, N-[4-Chloro-2-(1-{4(3)-oxo-quinazolin-3-yl}imino)ethylphenyl]-trifluoromethanesulfonamide] | 2% | 12% |  | 
C/C(=N\N1C(=O)NC(C)(C)C1=O)c1cc(Cl)ccc1NS(=O)(=O)C(F)(F)F [Compound 187] |  |  | 5% | 19%
CC(=Nn1cnc2ccccc21)c1cc(Cl)ccc1NS(=O)(=O)C(F)(F)F [Compound 188] |  |  | 2% | 7%
CC(=Nn1cc2ccccc2n1)c1cc(Cl)ccc1NS(=O)(=O)C(F)(F)F [Compound 189] |  |  | 0% | 2%
CC(=NN(C)c1ncccn1)c1cc(Cl)ccc1NS(=O)(=O)C(F)(F)F [Compound 190] | 2% | 15% |  | 
CC(=NN1CCN(C)CC1)c1cc(Cl)ccc1NS(=O)(=O)C(F)(F)F [Compound 191] |  |  | 2% | 48%
CC(=Nn1c(C)n[nH]c1=O)c1cc(Cl)ccc1NS(=O)(=O)C(F)(F)F [Compound 192] |  |  | 3% | 5%
CC(=Nn1ncc2ccccc21)c1cc(Cl)ccc1NS(=O)(=O)C(F)(F)F [Compound 193] |  |  | 2% | 9%
CC(=NN(C)c1ccc(Cl)nn1)c1cc(Cl)ccc1NS(=O)(=O)C(F)(F)F [Compound 194] |  |  | 0% | 5%
CC(=NN(C)c1ccccn1)c1cc(Cl)ccc1NS(=O)(=O)C(F)(F)F [Compound 195] |  |  | 2% | 30%
CC(=NN(C)c1ccc(Cl)cn1)c1cc(Cl)ccc1NS(=O)(=O)C(F)(F)F [Compound 196] |  |  | 3% | 32%
CC(=NN(C)c1cccc(Cl)n1)c1cc(Cl)ccc1NS(=O)(=O)C(F)(F)F [Compound 197] |  |  | 7% | 23%
CC(=NN(C)c1ccc2ccccc2n1)c1cc(Cl)ccc1NS(=O)(=O)C(F)(F)F [Compound 198] |  |  | 2% | 25%
CC(=Nn1c(=O)[nH]nc(C)c1=O)c1cc(Cl)ccc1NS(=O)(=O)C(F)(F)F [Compound 199] |  |  | 3% | 3%
CCCN(N=C(C)c1cc(Cl)ccc1NS(=O)(=O)C(F)(F)F)c1cccc(Cl)c1Cl [Compound 200] |  |  | 2% | 58%
CC(=Nn1c(C)nc2ccccc2c1=O)c1cc(Cl)ccc1NS(=O)(=O)C(F)(F)F [Compound 201] |  |  | 2% | 10%
CC(=NN(CCC#N)CCC#N)c1cc(Cl)ccc1NS(=O)(=O)C(F)(F)F [Compound 202] |  |  | 3% | 24%
CC(=NN(C)c1ccccc1C(F)(F)F)c1cc(Cl)ccc1NS(=O)(=O)C(F)(F)F [Compound 204] |  |  | 6% | 11%
CN(N=C1CCc2cccc(NS(=O)(=O)C(F)(F)F)c21)c1ccccc1 [Compound 205] |  |  | 12% | 13%
CC(=NN(C)c1cnccn1)c1cc(Cl)ccc1NS(=O)(=O)C(F)(F)F [Compound 206] | 7% | 12% |  | 
C/C(=N\NC(=O)Nc1ccc(OC(F)(F)F)cc1)c1cc(Cl)ccc1NS(=O)(=O)C(F)(F)F [Compound 207] |  |  | 5% | 8%
C/C(=N\NC(=O)Nc1ccc(C(F)(F)F)cc1)c1cc(Cl)ccc1NS(=O)(=O)C(F)(F)F [Compound 208] |  |  | 8% | 18%
C/C(=N\N(C)c1nccc2ccccc12)c1cc(Cl)ccc1NS(=O)(=O)C(F)(F)F [Compound 209] |  |  | 7% | 18%
